Source: paper PMC11336009 (GeroScience, 2024)

Legend:
[1] = test system: 6-OHDA unilateral medial forebrain bundle lesioned rat; assay: BrdU immunoreactivity (neurogenesis marker) in SVZ and striatum of 6-OHDA lesioned rats; type: in vivo; conditions: delayed treatment 30 mg/kg daily p.o.; BrdU 50 mg/kg i.p. day 8 to 20; day 21
Description: Gliptin treatment was initiated either prior to or after 6-OHDA lesioning (early and delayed treatment, respectively) as follows. […]. An estimated dose for a 250-g rat under this treatment was 10 mg/kg/day. […]. An estimated, clinically relevant, dose for a 250 g rat under this treatment was thus 30 mg/kg/day. Specifically for drug admixture into diet, drug was solubilized in 100% ETOH that was then added to the 16.2 g of food chow. Thereafter, the ETOH was evaporated off. […] Animals were weighed twice weekly and the amount of drug added to the chow was modified accordingly to maintain the daily required dose. […]. […] Specifically, the 10 mg/kg oral daily drug dose in our rat studies is equivalent to the routine human daily oral dose (100 mg in a 65 kg human) of these gliptins used in T2DM, and the 30 mg/kg rat dose is equivalent to a threefold higher dose that is well-tolerated in humans.
Following the exact same protocol described in Yin et al., 2012 [34] and Harvey et al. 2004 [36], anesthetized rats were subjected to a 6-OHDA unilateral medial forebrain bundle lesion. Briefly, 6-OHDA (2.27 µg/µL × 5 µL in 0.9% NaCl containing 0.2 mg/ml ascorbic acid) was unilaterally injected into the medial forebrain bundle (-4.4 mm AP, 1.2 mm ML relative to bregma and 8.4 mm below skull) over 4 min through a syringe pump (Micro 4, WPI, Sarasota, FL), as approved under National Health Research Institutes, Taiwan, Protocol # 102,068-A; 102,102-A. Following this procedure, all animals were monitored daily for adverse signs of health for 1 week (in line with the approved protocols).
BrdU (Sigma-Aldrich, St. Louis, MO) was injected parenterally (i.p.) from day 8 to day 20 after 6-OHDA lesioning at the dose of 50 mg/kg/day as a marker of neurogenesis. Animals were euthanized for immunostaining on day 21.
BrdU and TH localization was determined by immunohistochemistry. Serial sections of the entire brain were cut at 30 μm thickness by cryostat. One series from every sixth section was stained for TH. To control for staining variability, specimens from all experimental groups were included in every batch and reacted together in a net well tray under the same conditions. Sections were rinsed in 0.1 M phosphate buffer (PB), blocked with 4% bovine serum albumin (BSA) and 0.3% Triton x-100 in 0.1 M PB. […]
TH immunoreactivity and BrdU cell number in striatum were averaged from 3 brain sections with visible anterior commissure in each animal. TH immunoreactivity in SNc was measured every 6th Sect. […] Nigral volume was analyzed using Cavalieri's method.

GLP-1 and GIP = assay: Active GLP-1 and GIP measurement in rat plasma and CSF (ELISA); type: in vivo; conditions: 30 mg/kg daily p.o. day 7 to 45, day 45
Description: Plasma was obtained from whole blood samples at the time of euthanasia (centrifugation 10,000xG 60 s at 4 °C), and CSF was obtained from the cisterna magna. Samples were evaluated by ELISA using kits from IBL (Immuno-Biological Laboratories, Inc.) or from Millipore, following their protocols.

[2] = test system: TNF-α, IL-6, Iba-1 and GFAP; assay: Neuroinflammatory measures in brain (TNF-α, IL-6 ELISA; Iba-1, GFAP Western blot); type: in vivo, rat; conditions: 30 mg/kg daily p.o. day 7 to 45; day 45
Description: To quantify rat brain cytokine levels, brain tissues were homogenized in TPER (Tissue Protein Extraction Reagent) (ThermoFisher Scientific) using a Biomasher Homogenizer. Inhibitors of phosphatase and protease were added into the TPER to prevent protein degradation. Tissues were then sonicated for 10 pulses and centrifuged at 10,000 g for 10 min at 4 °C. The supernatant was used to measure brain cytokine levels using rat TNF-α ELISA kits from e-Bioscience (San Diego, CA, USA) and rat IL-6 ELISA kits from Biolegend (San Diego, CA, USA). The final results were normalized to protein content, as measured by BCA (bicinchoninic acid) assay. Brain tissue Iba-1 and GFAP levels were quantified by Western blot (Iba-1 and GFAP antibodies Santa Cruz Biotechnology, Inc.) and used in 1:100 dilution).

Row | Structure (SMILES) | BrdU labeling in the SVZ vs vehicle [1] | BrdU labeling in the lesioned striatum vs vehicle [1] | CSF GIP level vs vehicle (GLP-1 and GIP; CSF) | Plasma GIP level vs vehicle (GLP-1 and GIP) | Plasma GLP-1 level vs vehicle (GLP-1 and GIP) | GFAP level on the lesioned side of brain (striatum) vs vehicle [2] | IL-6 level on the lesioned side of brain (striatum) vs vehicle [2] | Iba1 level on the lesioned side of brain (striatum) vs vehicle [2] | TNF-α level on the lesioned side of brain (striatum) vs vehicle [2] | CSF GLP-1 level vs vehicle (GLP-1 and GIP; CSF)
1 | N[C@@H](CC(=O)N1CCn2c(nnc2C(F)(F)F)C1)Cc1cc(F)c(F)cc1F [Sitagliptin] | did not alter | significantly increased | elevated | elevated | elevated | reduced levels | reduced levels | reduced levels | reduced levels | 
2 | O=C([C@@H]1C[C@H](N2CCN(c3ncccn3)CC2)CN1)N1CCC(F)(F)C1 [PF-00734,200, Gosogliptin] | did not alter | significantly increased | elevated | elevated | elevated | reduced levels | reduced levels | reduced levels | reduced levels | elevated
